Publication PMC3985299, “Single Ascending Dose Safety and Pharmacokinetics of CDRI-97/78: First-in-Human Study of a Novel Antimalarial Drug” (Malaria Research and Treatment, 2014)
Where “and” joins values, the source holds several entries; their conditions need not be identical. Equal entries are not always repeated. Where two headings read alike, the source gives them in different places.

Legend:
[1] = set-up: method as in printed; conditions: background statement, ref not given; cited from earlier work
[2] = Single oral dose (200 mg) pharmacokinetic study, plasma LC-MS/MS, noncompartmental analysis; type: in vivo, human
Procedure: For pharmacokinetic (PK) study, eligible participants were admitted and housed in the clinical pharmacology unit an evening prior to the PK study. A standard dinner was served and a fasting condition for at least 10 hrs prior to dosing and 4 hrs after dosing was ensured. A peripheral forearm vein was cannulated for sampling for the PK analysis. 200 mg of the study drug was administered with 300 mL of water. The time of actual dose administration to the nearest minute was recorded. 2.5 mL of blood was collected from the indwelling cannula at 0 (before dose), 0.25, 0.5, 0.75, 1, 1.5, 2, 4, 6, 8, 12, 18, 24, 48, 72, 96, 120, and 144 hrs (after dose). 10 mL of additional blood was collected at 0 (before dose) and 24 hr (after dose) for laboratory parameters for safety assessment and PK control sample. A time window of ±2 minutes was permitted for collecting the post dose samples from the scheduled time for PK analysis. Plasma was separated from blood sample intended for PK analysis, within 1 hour of blood sampling, by centrifugation at 2000 rpm for 10 min at 4°C. Samples were stored at −80°C pending transportation. Heparinised blood samples were transported to the laboratory within 7 days of collection. Quantitative analyses of clinical phase ascending dose and single dose PKs samples were done at GLP lab of Pharmacokinetics and Metabolism Division, CDRI, Lucknow, India. α-Arteether was used as an internal standard and all the analyses were performed as per the published method by Singh et al. 2009 [19]. Acceptance criteria for analytical runs were fixed as per internationally approved guidelines. Data acquisition and quantitation were performed using analyst software version 1.4 (Applied Biosystems, MDS SCIEX Toronto, Canada). PK parameters were estimated by using WinNonlin software (Version 1.5, Pharsight Corporation, Mountain View, CA). Oral data were best fitted in noncompartmental model. The individual plasma concentration-time profiles were subjected to noncompartmental analysis to determine various PK parameters. The PK parameters included the terminal elimination half-life (T 1/2), maximum plasma concentration (C max), time to reach maximum plasma concentration (T max), area under the curve (AUC0–∞), and mean residence time (MRT).

[3] = 97/63 after oral 97/78 200 mg single dose, Mean ± SEM, N = 16
[4] = 97/63 in plasma after oral 97/78 200 mg single dose, individual volunteers 1-16
[5] = human, plasma, po, 200 mg, 97/63 after oral 97/78 200 mg single dose, Mean ± SEM, N = 16

AUC0−∞ [2, 3]: 878.74 ± 133.15 ng·h/mL | MRT [2, 3]: 13.77 ± 2.05 h | First time at which quantified in plasma ([2]; after oral 97/78 200 mg): 0.5 h | Last time at which quantified in plasma ([2]; after oral 97/78 200 mg, two volunteers up to 72 h): up to 48 h | Cmax [2, 5]: 144 ± 28.3 ng/mL | Tmax [2, 5]: 2.28 ± 0.27 h | AUC(0-inf) ([2]; male, human, plasma, po, 200 mg, 97/63 after oral 97/78 200 mg single dose, Mean ± SEM, N = 16): 845 ± 143 ng·h/mL | MRT ([2]; male, human, plasma, po, 200 mg, 97/63 after oral 97/78 200 mg single dose, Mean ± SEM, N = 16, read-out: MRT): 9.73 ± 1.06 h | Cmax ([2]; male, human, plasma, po, 200 mg, 97/63 after oral 97/78 200 mg, mean, as given in text without unit): 144 ± 28.3 ng/mL
SMILES: C=C(c1ccc(OC(C)(C)CO)cc1)C1COC2(OO1)C1CC3CC(C1)CC2C3 (stereo not drawn) [97/63]
Bioavailability [1]: poor | AUC0−∞ [2, 4]: 788.7 ng·h/mL and 1898.9 ng·h/mL and 935 ng·h/mL and 356.1 ng·h/mL and 583.6 ng·h/mL and 696.8 ng·h/mL and 833.1 ng·h/mL and 984.1 ng·h/mL and 104.8 ng·h/mL and 1644 ng·h/mL and 602.6 ng·h/mL and 785 ng·h/mL and 1522.6 ng·h/mL and 207.9 ng·h/mL and 1604.9 ng·h/mL and 511.7 ng·h/mL | C max [2, 4]: 172 ng/mL and 295 ng/mL and 47.4 ng/mL and 50.4 ng/mL and 65.4 ng/mL and 105 ng/mL and 55 ng/mL and 123 ng/mL and 20.1 ng/mL and 373 ng/mL and 187 ng/mL and 149 ng/mL and 355 ng/mL and 42.6 ng/mL and 202 ng/mL and 60.9 ng/mL | MRT [2, 4]: 12.57 h and 9.76 h and 30.72 h and 14.53 h and 11.26 h and 18.37 h and 32.20 h and 18.52 h and 5.72 h and 13.7 h and 3.53 h and 5.38 h and 14.25 h and 6.42 h and 14.13 h and 9.28 h | T 1/2 [2, 4]: 13.89 h and 11.63 h and 24.26 h and 14.50 h and 10.10 h and 17.73 h and 24.51 h and 18.90 h and 2.17 h and 4.78 h and 2.20 h and 3.88 h and 21.27 h and 3.00 h and 8.94 h and 7.80 h | T max [2, 4]: 1.5 h (5×) and 2 h (6×) and 4 h (4×) and 1 h
